Measured values from patent US7138361B2, “Herbicidal heterocycles” (E. I. du Pont de Nemours and Company, priority 2000, dated 2006).

Assays:
Format in all cases: in vivo
[1] = system: crabgrass (Digitaria sanguinalis); assay: Test B postemergence; details: 13 to 15 days
In short: (§1)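 Pre: seeded pots sprayed, chemical in non-phytotoxic solvent/surfactant mix. Post: plants 2–18 cm, 1–4 leaf, same formulation. Greenhouse 13–15 d; visual % control vs untreated, 0–100 scale.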

[2] = system: lambsquarters (Chenopodium album); assay: Test B postemergence; details: 13 to 15 days
In short: as §1

wild oat (Avena fatua) = assay: Test B postemergence; details: 13 to 15 days
In short: as §1

[3] = system: lambsquarters (Chenopodium album); assay: Test C preemergence
Description: (§2) Seeds of plant species selected from bermudagrass (Cynodon dactylon), Surinam grass (Brachiaria decumbens), cocklebur (Xanthium strumarium), corn (Zea mays), crabgrass (Digitaria sanguinalis), woolly cupgrass (Eriochloa villosa), giant foxtail (Setaria faberii), goosegrass (Eleusine indica), johnsongrass (Sorghum halepense), kochia (Kochia scoparia), lambsquarters (Chenopodium album), morningglory (Ipomoea hederacea), yellow nutsedge (Cyperus esculentus), pigweed (Amaranthus retroflexus), common ragweed (Ambrosia elatior), soybean (Glycine max) and velvetleaf (Abutilon theophrasti) were planted and treated preemergence with test chemicals formulated in a non-phytotoxic solvent mixture which included a surfactant.
(§3) At the same time, plants selected from these crop and weed species and also winter barley (Hordeum vulgare), blackgrass (Alopecurus myosuroides), canary grass (Phalaris minor), chickweed (Stellaria media), downy brome (Bromus tectorum), green foxtail (Setaria viridis), Italian ryegrass (Lolium multiflorum), wheat (Triticum aestivum), wild oat (Avena fatua) and windgrass (Apera spica-venti) were treated with postemergence applications of some of the test chemicals formulated in the same manner. Plants ranged in height from 2 to 18 cm (1- to 4-leaf stage) for postemergence treatments. Plant species in the flooded paddy test consisted of rice (Oryza saliva), smallflower flatsedge (Cyperus difformis), duck salad (Heteranthera limosa) and barnyardgrass (Echinochloa crus-galli) grown to the 2-leaf stage for testing. Treated plants and controls were maintained in a greenhouse for 12 to 14 days, after which time all species were compared to controls and visually evaluated. Plant response ratings, summarized in Table C, are based on a scale of 0 to 100 where 0 is no effect and 100 is complete control. A dash (-) response means no test result.

[4] = system: johnsongrass (Sorghum halepense); assay: Test C preemergence
Description: as §2, §3

[5] = system: velvetleaf (Abutilon theophrasti); assay: Test C preemergence
Description: as §2, §3

[6] = system: cocklebur (Xanthium strumarium); assay: Test C preemergence
Description: as §2, §3

[7] = system: woolly cupgrass (Eriochloa villosa); assay: Test C preemergence
Description: as §2, §3

Nightshade = assay: Test C preemergence
Description: as §2, §3

[8] = system: pigweed (Amaranthus retroflexus); assay: Test C preemergence
Description: as §2, §3

kochia (Kochia scoparia) = assay: Test C preemergence
Description: as §2, §3

[9] = system: giant foxtail (Setaria faberii); assay: Test C preemergence
Description: as §2, §3

[10] = system: Surinam grass (Brachiaria decumbens); assay: Test C preemergence
Description: as §2, §3

soybean (Glycine max) = assay: Test C preemergence
Description: as §2, §3

corn (Zea mays) = assay: Test C preemergence
Description: as §2, §3

[11] = system: bermudagrass (Cynodon dactylon); assay: Test C preemergence
Description: as §2, §3

Sunflower = assay: Test C preemergence; details: Rate 125 g/ha; scale 0 to 100, 0 no effect, 100 complete control
Description: as §2, §3

[12] = system: common ragweed (Ambrosia elatior); assay: Test C preemergence
Description: as §2, §3

[13] = system: cocklebur (Xanthium strumarium); assay: Test B postemergence; details: 13 to 15 days
In short: as §1

[14] = Rate 125 g/ha, scale 0 (no effect) to 100 (complete control)
[15] = Rate 500 g/ha, scale 0 to 100, 0 is no effect, 100 is complete control
[16] = Rate 125 g/ha, scale 0 to 100, 0 no effect, 100 complete control
[17] = preemergence, Rate 31 g/ha, scale 0 to 100
[18] = preemergence, Rate 62 g/ha, scale 0 to 100
[19] = preemergence, Rate 250 g/ha, scale 0 to 100, 0 no effect, 100 complete control
[20] = Rate 250 g/ha, scale 0 to 100, 0 no effect, 100 complete control
[21] = Rate 62 g/ha, scale 0 to 100, 0 no effect, 100 complete control
[22] = preemergence, Rate 250 g/ha, visual evaluation after 12 to 14 days

## CC(C)(C)c1ccn(C2CCN(c3cccc([S+]([O-])C(F)(F)F)c3)C2=O)n1 (stereo not drawn) [Compound 101]
[1]; [14]
  Plant response rating, Crabgrass: 0
[1]; [15]
  Plant response rating, Crabgrass: 0
[2]; [15]
  Plant response rating, Lambsquarters: 0
Wild oat (Avena fatua); [15]
  Plant response rating, Wild Oat: 0
[3]; [16]
  Plant response rating, Lambsquarters: 100
[3]; [17]
  Plant response rating, Lambsquarters: 0
[3]; [18]
  Plant response rating, Lambsquarters: 0
[3]; [19]
  Plant response rating, Lambsquarters: 100
[4]; [16]
  Plant response rating, Johnsongrass: 40
[4]; [17]
  Plant response rating, Johnsongrass: 0
[4]; [18]
  Plant response rating, Johnsongrass: 10
[4]; [19]
  Plant response rating, Johnsongrass: 90
[5]; [16]
  Plant response rating, Velvetleaf: 50
[5]; [17]
  Plant response rating, Velvetleaf: 20
[5]; [18]
  Plant response rating, Velvetleaf: 20
[5]; [19]
  Plant response rating, Velvetleaf: 90
[6]; [16]
  Plant response rating, Cocklebur: 0
[6]; [17]
  Plant response rating, Cocklebur: 0
[6]; [18]
  Plant response rating, Cocklebur: 0
[6]; [19]
  Plant response rating, Cocklebur: 50
[7]; [16]
  Plant response rating, Cupgrass, Woolly: 20
[7]; [17]
  Plant response rating, Cupgrass, Woolly: 0
[7]; [18]
  Plant response rating, Cupgrass, Woolly: 0
[7]; [19]
  Plant response rating, Cupgrass, Woolly: 100
Nightshade; Rate 31 g/ha, scale 0 to 100
  Plant response rating, Nightshade: 0
Nightshade; Rate 62 g/ha, scale 0 to 100
  Plant response rating, Nightshade: 0
Nightshade; [16]
  Plant response rating, Nightshade: 90
Nightshade; [20]
  Plant response rating, Nightshade: 100
[8]; [16]
  Plant response rating, Pigweed: 0
[8]; [17]
  Plant response rating, Pigweed: 0
[8]; [18]
  Plant response rating, Pigweed: 0
[8]; [19]
  Plant response rating, Pigweed: 10
Kochia (Kochia scoparia); [16]
  Plant response rating, Kochia: 0
Kochia (Kochia scoparia); [17]
  Plant response rating, Kochia: 0
Kochia (Kochia scoparia); [18]
  Plant response rating, Kochia: 0
Kochia (Kochia scoparia); [19]
  Plant response rating, Kochia: 0
[9]; [16]
  Plant response rating, Foxtail, Giant: 40
[9]; [17]
  Plant response rating, Foxtail, Giant: 0
[9]; [18]
  Plant response rating, Foxtail, Giant: 40
[9]; [19]
  Plant response rating, Foxtail, Giant: 100
[10]; [16]
  Plant response rating, Surinam grass: 20
[10]; [17]
  Plant response rating, Surinam grass: 0
[10]; [18]
  Plant response rating, Surinam grass: 0
[10]; [19]
  Plant response rating, Surinam grass: 40
Soybean (Glycine max); [16]
  Plant response rating, Soybean: 0
Soybean (Glycine max); [17]
  Plant response rating, Soybean: 0
Soybean (Glycine max); [18]
  Plant response rating, Soybean: 0
Soybean (Glycine max); [19]
  Plant response rating, Soybean: 50
Corn (Zea mays); [16]
  Plant response rating, Corn: 0
Corn (Zea mays); [17]
  Plant response rating, Corn: 0
Corn (Zea mays); [18]
  Plant response rating, Corn: 0
Corn (Zea mays); [19]
  Plant response rating, Corn: 60
[11]; [16]
  Plant response rating, Bermudagrass: 100
[11]; [17]
  Plant response rating, Bermudagrass: 40
[11]; [18]
  Plant response rating, Bermudagrass: 40
[11]; [19]
  Plant response rating, Bermudagrass: 100
Sunflower
  Plant response rating, Sunflower: 0
[12]; [16]
  Plant response rating, Ragweed, Common: 100
[12]; [17]
  Plant response rating, Ragweed, Common: 0
[12]; [18]
  Plant response rating, Ragweed, Common: 0
[12]; [19]
  Plant response rating, Ragweed, Common: 100

## COC(=O)c1cccc(N2CCC(n3ccc(C(C)(C)C)n3)C2=O)c1 (stereo not drawn) [Compound 73]
[1]; [14]
  Plant response rating, Crabgrass: 0
[1]; [15]
  Plant response rating, Crabgrass: 50
[2]; [14]
  Plant response rating, Lambsquarters: 0
[2]; [15]
  Plant response rating, Lambsquarters: 70
Wild oat (Avena fatua); [14]
  Plant response rating, Wild Oat: 0
Wild oat (Avena fatua); [15]
  Plant response rating, Wild Oat: 0
[13]; [14]
  Plant response rating, Cocklebur: 20
[13]; [15]
  Plant response rating, Cocklebur: 90
[4]; [21]
  Plant response rating, Johnsongrass: 20
[4]; [16]
  Plant response rating, Johnsongrass: 30
[4]; [17]
  Plant response rating, Johnsongrass: 0
[4]; [22]
  Plant response rating (0 to 100), Johnsongrass: 50
[5]; [16]
  Plant response rating, Velvetleaf: 50
[5]; [17]
  Plant response rating, Velvetleaf: 20
[5]; [19]
  Plant response rating, Velvetleaf: 60
[6]; [21]
  Plant response rating, Cocklebur: 70
[6]; [17]
  Plant response rating, Cocklebur: 20
[6]; [22]
  Plant response rating (0 to 100), Cocklebur: 80
[7]; [21]
  Plant response rating, Cupgrass, Woolly: 60
[7]; [16]
  Plant response rating, Cupgrass, Woolly: 80
[7]; [17]
  Plant response rating, Cupgrass, Woolly: 20
[7]; [22]
  Plant response rating (0 to 100), Cupgrass, Woolly: 100
Nightshade; Rate 31 g/ha, scale 0 to 100
  Plant response rating, Nightshade: 50
Nightshade; [21]
  Plant response rating, Nightshade: 60
Nightshade; [16]
  Plant response rating, Nightshade: 80
Nightshade; [20]
  Plant response rating, Nightshade: 100
[8]; [16]
  Plant response rating, Pigweed: 0
[8]; [17]
  Plant response rating, Pigweed: 0
[8]; [19]
  Plant response rating, Pigweed: 40
Kochia (Kochia scoparia); [21]
  Plant response rating, Kochia: 80
Kochia (Kochia scoparia); [16]
  Plant response rating, Kochia: 100
Kochia (Kochia scoparia); [17]
  Plant response rating, Kochia: 20
Kochia (Kochia scoparia); [22]
  Plant response rating (0 to 100), Kochia: 100
[9]; [21]
  Plant response rating, Foxtail, Giant: 80
[9]; [16]
  Plant response rating, Foxtail, Giant: 100
[9]; [17]
  Plant response rating, Foxtail, Giant: 20
[9]; [22]
  Plant response rating (0 to 100), Foxtail, Giant: 100
[10]; [21]
  Plant response rating, Surinam grass: 50
[10]; [16]
  Plant response rating, Surinam grass: 70
[10]; [17]
  Plant response rating, Surinam grass: 20
[10]; [22]
  Plant response rating (0 to 100), Surinam grass: 70
Soybean (Glycine max); [16]
  Plant response rating, Soybean: 40
Soybean (Glycine max); [17]
  Plant response rating, Soybean: 0
Soybean (Glycine max); [19]
  Plant response rating, Soybean: 70
Corn (Zea mays); [21]
  Plant response rating, Corn: 0
Corn (Zea mays); [16]
  Plant response rating, Corn: 0
Corn (Zea mays); [17]
  Plant response rating, Corn: 0
Corn (Zea mays); [22]
  Plant response rating (0 to 100), Corn: 0
[11]; [21]
  Plant response rating, Bermudagrass: 70
[11]; [16]
  Plant response rating, Bermudagrass: 100
[11]; [17]
  Plant response rating, Bermudagrass: 60
[11]; [22]
  Plant response rating (0 to 100 where 0 is no effect and 100 is complete control), Bermudagrass: 100
Sunflower
  Plant response rating, Sunflower: 50
[12]; [16]
  Plant response rating, Ragweed, Common: 80
[12]; [17]
  Plant response rating, Ragweed, Common: 30
[12]; [19]
  Plant response rating, Ragweed, Common: 100
